Values joined by “and” are separate entries in the source; they are usually repeats but may differ in a detail not shown here. Identical values can stand only once.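 96-well plates; 48 h exposure; 5 concentrations. Endpoints by linear interpolation between flanking doses. Not reached: highest tested concentration assigned. Abbreviation: GI50, concentration required for 50% inhibition of growth. The concentration for full growth arrest is given as TGI.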
Experiments:
Experiment in all cases: NCI tumour cell line growth inhibition, 48 h
[1] = tested on: SK-MEL-5 melanoma
[2] = tested on: OVCAR-8 ovarian
[3] = tested on: SNB-75 CNS
[4] = tested on: HOP-62 NSCLC
[5] = tested on: OVCAR-3 ovarian
[6] = tested on: RPMI-8226 leukemia
[7] = tested on: NCI-H460 lung
[8] = tested on: SW-620 colon
[9] = tested on: TK-10 renal
[10] = tested on: M14 melanoma

Row | Compound | GI50 [1] | TGI [1] | GI50 [2] | TGI [2] | GI50 [3] | TGI [3] | GI50 [4] | TGI [4] | GI50 [5] | TGI [5] | GI50 [6] | TGI [6] | GI50 [7] | TGI [7] | GI50 [8] | TGI [8] | GI50 [9] | TGI [9] | GI50 [10] | TGI [10]
1 | O=C1c2ccccc2C(=O)c2c1c(NCCNCCO)c1cc[nH]c1c2NCCNCCO | 3.17 µM | 16.4 µM | 2.42 µM | 40.5 µM | 9.77 µM | > 100 µM | 2.6 µM | > 22.2 µM | 3.57 µM | > 26.1 µM | 13.9 µM | 47.8 µM | 7.78 µM | > 60.1 µM | 3.28 µM | 25.9 µM | 6.04 µM | 44.9 µM | 7.27 µM | > 55.1 µM
2 | CCN(CCc1ccc(F)cc1)c1ccc(CO)c(Cl)c1 | 13 µM | 25.9 µM | 10.8 µM | 27.4 µM | 9.26 µM | 25.9 µM | 13.1 µM | 26.2 µM | 4.27 µM | 15.4 µM | 4.69 µM | 27.4 µM | 6.3 µM | 21.6 µM | 8.84 µM | 24.2 µM | 0.366 µM | 1.7 µM | 13.8 µM | 28.7 µM
3 | COC(=O)/C1=C/C2CC(/C=C(/c3ccccc3)C(=O)O1)C2 |  | 47 µM |  | 80.6 µM |  | 35.4 µM |  | 95 µM |  | > 100 µM |  | 64.7 µM |  | > 100 µM |  | > 100 µM |  | > 100 µM |  | > 100 µM
4 | COc1ccc(-n2nc(C)c3c(Nc4ccc(NC(=O)Nc5cc(C(F)(F)F)ccc5F)cc4)ncnc32)cc1 | 1.91 µM | 3.73 µM | 2.36 µM | 6.16 µM | 1.21 µM | 7.84 µM | 2.97 µM | 11.4 µM | 2.4 µM | 6.84 µM | 2.26 µM | 5.88 µM | 2.89 µM | 8.7 µM | 3.45 µM | 22.6 µM | 3.74 µM | > 100 µM | 1.9 µM | 4.64 µM
5 | CC(=O)OC1CC(C)c2c1ncnc2N1CCN(C(=O)OC(C)(C)C)CC1 (stereo unspecified) | 37.8 µM | > 100 µM | 54.3 µM | > 100 µM | 25.2 µM | > 100 µM | 45.4 µM | > 100 µM | 32.3 µM | 82.7 µM | 35.1 µM | > 100 µM | 34.7 µM | > 100 µM | 42.9 µM | > 100 µM | 70.8 µM | > 100 µM | 30.4 µM | > 100 µM
6 | CP(=O)(CCSc1ccccc1)c1ccccc1 (stereo unspecified) |  | > 100 µM |  | > 100 µM |  | > 100 µM |  | > 100 µM |  | > 100 µM |  | > 100 µM |  | > 100 µM |  | > 100 µM |  | > 100 µM |  | > 100 µM
7 | CCOc1ccc2c(-c3ccnc(Nc4cccc(C(F)(F)F)c4)n3)cnn2n1 | > 25 µM | > 25 µM | 5.44 µM | 11.7 µM | 9.81 µM | > 25 µM | > 21 µM | > 25 µM | 8.57 µM | > 25 µM | > 25 µM | > 25 µM | 9.05 µM | > 25 µM | > 25 µM | > 25 µM | 9.72 µM | > 23.8 µM | > 25 µM | > 25 µM
8 | CCCCCn1ncc(-c2c(O)c(O)cc3c(O)c(-c4c(C)cc5c(-c6cnn(CCCCC)n6)c(O)c(O)cc5c4O)c(C)cc23)n1 | 0.388 µM | 2.31 µM | 0.125 µM | 3.2 µM | 0.165 µM | 3.84 µM | 0.14 µM | 2.75 µM | 0.0919 µM | 4.62 µM | 0.109 µM | 4.9 µM | 0.0258 µM | 0.465 µM | 0.117 µM | 6.26 µM | 0.126 µM | 5.05 µM | 0.182 µM | 2.89 µM
9 | CCC1(c2ccncc2)CCC(=O)NC1=O (stereo unspecified) |  | > 100 µM |  | > 100 µM |  | > 100 µM |  | > 100 µM |  | > 100 µM |  | > 100 µM |  | > 100 µM |  | > 100 µM |  | > 100 µM |  | > 100 µM
10 | O=C(/C=C/c1ccccc1)c1ccc(O)c(CN2CCN(c3cc4c(cc3F)c(=O)c(C(=O)O)cn4C3CC3)CC2)c1 | 1.89 µM | 7.48 µM | 0.592 µM | > 100 µM | 0.378 µM | 9.78 µM | 3.22 µM | > 100 µM | 1.91 µM | > 100 µM | 0.275 µM | 6.37 µM | 3.85 µM | > 100 µM | 2.28 µM | > 100 µM | 6.37 µM | > 100 µM | 1 µM | > 100 µM
11 | CN(C)c1ccc2c(SCC(=O)OCC(=O)[C@@]3(O)CC[C@H]4[C@@H]5CCC6=CC(=O)C=C[C@]6(C)[C@H]5C(=O)C[C@@]43C)c3ccc(N(C)C)cc3nc2c1 |  | > 100 µM |  | 37 µM |  | > 89.7 µM |  | > 100 µM |  | > 100 µM |  | 82.5 µM |  | > 45.7 µM |  | > 100 µM |  | 48.8 µM |  | > 100 µM
12 | COc1ccc(-c2ccc(=O)oc2-c2cc(OC)c(OC)c(OC)c2)cc1O | < 0.01 µM | 3.45 µM | 0.0498 µM | > 100 µM | 0.0389 µM | > 100 µM | 0.0199 µM | > 100 µM | < 0.01 µM | 0.16 µM | 0.0251 µM | 0.956 µM | 0.0244 µM |  | < 0.0147 µM | > 100 µM | 62.3 µM | > 100 µM | 0.018 µM | > 100 µM
13 | COc1cc2c(cc1OCCN1C(=O)c3cccc4cccc(c34)C1=O)N=C[C@@H]1CCCN1C2=O | 13.1 µM | 15.5 µM and 28.2 µM | 16.6 µM | 17.1 µM and 36.7 µM |  | 45 µM |  | 47.5 µM | 14.9 µM | 13.1 µM and 28.2 µM | 26 µM | 32 µM and > 100 µM | 15.5 µM | 13.9 µM and 29.9 µM | 17.2 µM | 15.8 µM and > 100 µM |  | 14.8 µM | 22.5 µM | 15.7 µM and 70.6 µM

— PubChem BioAssay (NCI)
